Results from ChEMBL document CHEMBL3045345, “Computer simulation of the in vitro and in vivo anti-inflammatory activities of dihydropyrimidines acid derivatives through the inhibition of cyclooxygenase-2” (Med Chem Res, 2013).
The source made the active and inactive calls. No cut-off for these calls is given here.

Key:
Rattus norvegicus [1] = assay: Anti-inflammatory activity in Rattus norvegicus (rat) assessed as inhibition of carrageenan-induced paw edema at 100 mg/kg, po treated 60 min prior to carrageenan injection measured after 1 to 5 hr; type: functional
[2] = biological target: T1, Prostaglandin G/H synthase 1 (Ovis aries, UniProt P05979); assay: Inhibition of Ovis aries (sheep) COX-1 assessed as decrease in PGF2a production from PGH2 upon reduction with stannous chloride using arachidonic acid as substrate pre-incubated with enzyme for 5 min prior to substrate addition by enzyme immunoassay
T1 sequence (P05979 whole entry): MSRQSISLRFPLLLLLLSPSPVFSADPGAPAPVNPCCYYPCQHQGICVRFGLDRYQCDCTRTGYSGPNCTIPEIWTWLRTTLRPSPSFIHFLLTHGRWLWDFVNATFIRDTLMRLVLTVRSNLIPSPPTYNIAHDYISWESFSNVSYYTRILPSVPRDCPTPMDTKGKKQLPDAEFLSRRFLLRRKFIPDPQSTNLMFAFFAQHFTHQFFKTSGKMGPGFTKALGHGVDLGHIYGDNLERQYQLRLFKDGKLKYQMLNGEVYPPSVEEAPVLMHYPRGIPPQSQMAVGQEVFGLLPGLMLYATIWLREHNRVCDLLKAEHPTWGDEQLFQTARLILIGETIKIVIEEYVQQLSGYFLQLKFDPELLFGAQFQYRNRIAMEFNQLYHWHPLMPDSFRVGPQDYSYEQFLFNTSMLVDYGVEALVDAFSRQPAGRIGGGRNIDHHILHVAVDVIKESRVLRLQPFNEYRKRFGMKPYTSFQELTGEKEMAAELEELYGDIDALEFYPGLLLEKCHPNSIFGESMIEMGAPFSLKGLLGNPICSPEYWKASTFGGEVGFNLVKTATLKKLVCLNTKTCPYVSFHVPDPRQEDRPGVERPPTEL

Rattus norvegicus [3] = assay: Anti-inflammatory activity in Rattus norvegicus (rat) assessed as inhibition of carrageenan-induced paw edema at 100 mg/kg, po treated 60 min prior to carrageenan injection measured after 1 to 5 hr relative to ibuprofen; type: functional

Row | IC50 [2] [µM] | SMILES | inhibition in vivo at 100 mg/kg (Rattus norvegicus [1]) [%] | inhibition in vivo at 100 mg/kg (Rattus norvegicus [3]) [%] | inhibition (Rattus norvegicus [1])
1 | – | CC(C)Cc1ccc(C(C)C(=O)O)cc1 (centres undefined) [IBUPROFEN] | 56 | – | –
2 | 14.7 | COc1ccc(/C=C/C2=C(C(=O)O)C(c3ccc(OC)cc3)NC(=O)N2)cc1 (centres undefined) | 23 | 41 | –
3 | – | O=C1NC(/C=C/c2ccccc2)=C(C(=O)O)C(c2ccccc2)N1 (centres undefined) | 16 | – | –
4 | – | O=C1NC(/C=C/c2ccc([N+](=O)[O-])cc2)=C(C(=O)O)C(c2ccc([N+](=O)[O-])cc2)N1 (centres undefined) | – | – | inactive
5 | 14.3 | COc1ccc(/C=C/C2=C(C(=O)O)C(c3ccc(OC)cc3)NC(=S)N2)cc1 (centres undefined) | 38 | 38 | –
6 | – | O=C(O)C1=C(/C=C/c2ccccc2)NC(=S)NC1c1ccccc1 (centres undefined) | – | – | inactive
7 | – | CN(C)c1ccc(/C=C/C2=C(C(=O)O)C(c3ccc(N(C)C)cc3)NC(=O)N2)cc1 (centres undefined) | – | – | inactive
8 | – | O=C1NC(/C=C/c2ccc(O)cc2)=C(C(=O)O)C(c2ccc(O)cc2)N1 (centres undefined) | 12 | – | –
9 | – | O=C(O)C1=C(/C=C/c2ccc(O)cc2)NC(=S)NC1c1ccc(O)cc1 (centres undefined) | – | – | inactive
10 | – | CN(C)c1ccc(/C=C/C2=C(C(=O)O)C(c3ccc(N(C)C)cc3)NC(=S)N2)cc1 (centres undefined) | – | – | inactive
